Results published in ChEMBL document CHEMBL1129911, “Synthesis, characterization, interaction with DNA, and antitumor activity of a cis-Dichloroplatinum(II) complex linked to an intercalator via one methylene chain” (Bioorg Med Chem Lett, 1997).

Tested on: Nucleic Acid
Assay: The association constant was obtained from absorption spectral change
Type: nucleic-acid assay

SMILES: NCCNCc1c2ccccc2nc2ccccc12
- K ass: 36000 M⁻¹
